Activity calls are given as the source filed them.
Tests used:
[1] = molecular target: T1, Interferon regulatory factor 3 (Homo sapiens) (UniProt Q14653); experiment: Inhibition of IRF3 induced IFN-beta luciferase activation in HEK293T cells at 1 to 30 uM by Dual luciferase reporter assay; assay type: cell-based; conditions: dose 1-30 µM
T1 sequence (whole entry): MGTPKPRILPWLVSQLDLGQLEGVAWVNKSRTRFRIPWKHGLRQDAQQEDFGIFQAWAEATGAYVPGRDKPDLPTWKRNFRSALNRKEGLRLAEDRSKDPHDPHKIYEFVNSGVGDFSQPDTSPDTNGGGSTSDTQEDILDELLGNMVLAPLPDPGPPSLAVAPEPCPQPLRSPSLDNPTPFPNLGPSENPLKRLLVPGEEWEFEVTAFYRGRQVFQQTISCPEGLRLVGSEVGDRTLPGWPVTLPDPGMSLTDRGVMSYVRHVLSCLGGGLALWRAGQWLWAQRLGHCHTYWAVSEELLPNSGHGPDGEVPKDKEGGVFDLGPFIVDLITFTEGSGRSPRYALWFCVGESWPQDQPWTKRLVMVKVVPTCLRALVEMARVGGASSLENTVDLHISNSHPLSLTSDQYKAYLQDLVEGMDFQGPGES

[2] = molecular target: T2, Serine/threonine-protein kinase TBK1 (Homo sapiens) (UniProt Q9UHD2); experiment: Inhibition of TBK1 induced IFN-beta luciferase activation in HEK293T cells at 1 to 30 uM by Dual luciferase reporter assay; assay type: cell-based; conditions: dose 1-30 µM
T2 sequence (whole entry): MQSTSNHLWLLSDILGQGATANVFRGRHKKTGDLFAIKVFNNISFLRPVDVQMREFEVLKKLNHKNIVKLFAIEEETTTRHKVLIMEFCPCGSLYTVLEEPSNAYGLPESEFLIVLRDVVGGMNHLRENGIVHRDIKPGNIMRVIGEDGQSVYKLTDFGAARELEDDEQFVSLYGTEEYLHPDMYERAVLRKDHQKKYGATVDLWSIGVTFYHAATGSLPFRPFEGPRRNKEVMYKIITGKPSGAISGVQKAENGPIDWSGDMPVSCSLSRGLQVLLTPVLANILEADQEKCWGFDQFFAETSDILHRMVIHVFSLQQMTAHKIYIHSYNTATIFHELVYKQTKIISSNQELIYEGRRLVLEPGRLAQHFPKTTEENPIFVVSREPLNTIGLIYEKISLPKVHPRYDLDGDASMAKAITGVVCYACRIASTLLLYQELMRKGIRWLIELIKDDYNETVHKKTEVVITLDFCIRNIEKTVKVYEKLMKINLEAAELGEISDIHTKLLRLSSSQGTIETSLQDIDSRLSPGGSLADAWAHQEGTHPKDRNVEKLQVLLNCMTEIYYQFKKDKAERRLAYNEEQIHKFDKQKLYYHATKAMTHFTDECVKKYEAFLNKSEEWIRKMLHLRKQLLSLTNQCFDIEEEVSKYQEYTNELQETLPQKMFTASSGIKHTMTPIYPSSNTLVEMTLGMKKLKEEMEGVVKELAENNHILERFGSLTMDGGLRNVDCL

Danio rerio [3] = species on record: Danio rerio; experiment: Anti osteoporosis activity in prednisolone induced Tg (ola.sp7:nlsGFP) Zebrafish model assessed as upregulation of vdrb-mRNA expression at 5 uM by real-time qPCR analysis; assay type: functional, organism-based
Danio rerio [4] = species on record: Danio rerio; experiment: Anti osteoporosis activity in Tg (ola.sp7:nlsGFP) Zebrafish model assessed as reversal of prednisone induced bmp4 gene inhibition 2.5 to 10 uM by real-time qPCR analysis; assay type: functional, organism-based; conditions: dose 2.5-10 µM
Danio rerio [5] = species on record: Danio rerio; experiment: Anti osteoporosis activity in Tg (ola.sp7:nlsGFP) Zebrafish model assessed as reversal of prednisone induced bmp2a gene inhibition 2.5 to 10 uM by real-time qPCR analysis; assay type: functional, organism-based; conditions: dose 2.5-10 µM
Danio rerio [6] = species on record: Danio rerio; experiment: Anti osteoporosis activity in prednisolone induced Tg (ola.sp7:nlsGFP) Zebrafish model assessed as upregulation of itbg5 mRNA expression at 5 uM by real-time qPCR analysis; assay type: functional, organism-based
HEK293T = experiment: Inhibition of cGAS/STING induced IFN-beta luciferase activation in HEK293T cells at 1 to 30 uM by Dual luciferase reporter assay; assay type: cell-based; conditions: Homo sapiens, dose 1-30 µM
BMMC [7] = experiment: Cytotoxicity against mouse BMMC cells at 5 to 15 uM measured after 72 hrs by MTT assay; assay type: toxicity, cell-based; conditions: dose 5-15 µM
BMDM [8] = experiment: Downregulation of CXCL10 mRNA expression in mouse BMDM cells by real-time PCR analysis; assay type: functional, cell-based; conditions: dose 1-30 µM
Danio rerio [9] = species on record: Danio rerio; experiment: Anti osteoporosis activity in Tg (ola.sp7:nlsGFP) Zebrafish model assessed as reversal of prednisone induced alp gene inhibition 2.5 to 10 uM by real-time qPCR analysis; assay type: functional, organism-based; conditions: dose 2.5-10 µM
Danio rerio [10] = species on record: Danio rerio; experiment: Anti osteoporosis activity in prednisolone induced Tg (ola.sp7:nlsGFP) Zebrafish model assessed as upregulation of col4a6 mRNA expression at 5 uM by real-time qPCR analysis; assay type: functional, organism-based
Danio rerio [11] = species on record: Danio rerio; experiment: Anti osteoporosis activity in prednisone induced Tg (ola.sp7:nlsGFP) Zebrafish model assessed as mitigation of fluorescence density reduction in zebrafish opercle at 2.5 to 5 uM by microscopy based analysis; assay type: functional, organism-based; conditions: dose 2.5-5 µM
Danio rerio [12] = species on record: Danio rerio; experiment: Anti osteoporosis activity in prednisolone induced Tg (ola.sp7:nlsGFP) Zebrafish model assessed as upregulation of col1a2 mRNA expression at 5 uM by real-time qPCR analysis; assay type: functional, organism-based
BMMC [13] = experiment: Anti-osteoporosis activity in mouse BMMC cells assessed as inhibition of RANKL-induced osteoclast differentiation measured after 3 days in presence of MCSF by TRAP staining based assay; assay type: functional, cell-based; conditions: dose 5-15 µM, time 3.0 day
Danio rerio [14] = species on record: Danio rerio; experiment: Anti osteoporosis activity in prednisone induced Tg (ola.sp7:nlsGFP) Zebrafish model assessed as mitigation of fluorescence area reduction in zebrafish branchiostegal rays at 2.5 to 5 uM by microscopy based analysis; assay type: functional, organism-based; conditions: dose 2.5-5 µM
[15] = Inhibition of LPS-induced NF-kappaB activation in mouse RAW264.7 cells transfected with luciferase reporter gene pretreated with compounds for 30 mins followed by LPS stimulation for 8 hrs by luciferase reporter gene assay; assay type: cell-based
Danio rerio [16] = species on record: Danio rerio; experiment: Anti osteoporosis activity in prednisolone induced Tg (ola.sp7:nlsGFP) Zebrafish model assessed as upregulation of frem2a mRNA expression at 5 uM by real-time qPCR analysis; assay type: functional, organism-based
BMDM [17] = experiment: Downregulation of IFN-beta mRNA expression in mouse BMDM cells by real-time PCR analysis; assay type: functional, cell-based; conditions: dose 1-30 µM
Danio rerio [18] = species on record: Danio rerio; experiment: Anti osteoporosis activity in prednisone induced Tg (ola.sp7:nlsGFP) Zebrafish model assessed as mitigation of fluorescence density reduction in zebrafish branchiostegal rays at 2.5 to 5 uM by microscopy based analysis; assay type: functional, organism-based; conditions: dose 2.5-5 µM
BMDM [19] = experiment: Downregulation of TNF-alpha mRNA expression in mouse BMDM cells by real-time PCR analysis; assay type: functional, cell-based; conditions: dose 1-30 µM
Danio rerio [20] = species on record: Danio rerio; experiment: Anti osteoporosis activity in prednisolone induced Tg (ola.sp7:nlsGFP) Zebrafish model assessed as upregulation of frem2b mRNA expression at 5 uM by real-time qPCR analysis; assay type: functional, organism-based
RAW264.7 = experiment: Inhibition of LPS-induced NF-kappaB activation in mouse RAW264.7 cells transfected with luciferase reporter gene at 20 uM pretreated with compounds for 30 mins followed by LPS stimulation for 8 hrs by luciferase reporter gene assay; assay type: cell-based; conditions: time 8.5 hrs
Danio rerio [21] = species on record: Danio rerio; experiment: Anti osteoporosis activity in prednisone induced Tg (ola.sp7:nlsGFP) Zebrafish model assessed as mitigation of fluorescence area reduction in zebrafish opercle at 2.5 to 5 uM by microscopy based analysis; assay type: functional, organism-based; conditions: dose 2.5-5 µM

COC(=O)CC[C@@]1(C)[C@@H]2C=C(C(=O)O)CC[C@@H]21
14.5 µM: IC50 [15]
Non-Toxic: Activity (BMMC [7])
active: inhibition [1] | inhibition [2] | Activity (Danio rerio [3]) | Activity (Danio rerio [4]) | Activity (Danio rerio [5]) | Activity (Danio rerio [6]) | inhibition (HEK293T) | Activity (BMDM [8]) Dose-Dependent Effect | Activity (Danio rerio [9]) | Activity (Danio rerio [10]) | Activity (Danio rerio [11]) | Activity (Danio rerio [12]) | Activity (BMMC [13]) Dose-Dependent Effect | Activity (Danio rerio [14]) | Activity (Danio rerio [16]) | Activity (BMDM [17]) Dose-Dependent Effect | Activity (Danio rerio [18]) | Activity (BMDM [19]) Dose-Dependent Effect | Activity (Danio rerio [20]) | inhibition (RAW264.7) | Activity (Danio rerio [21])

CC(C)(O)C(=O)CC[C@@]1(C)[C@@H]2C=C(C(=O)O)CC[C@@H]21
active: inhibition (RAW264.7)

C[C@]1(C(=O)O)[C@@H]2C=C(C(=O)O)CC[C@@H]21
active: inhibition (RAW264.7)

Source: ChEMBL document CHEMBL5518173, “Discovery of a novel anti-osteoporotic agent from marine fungus-derived structurally diverse sirenins” (Eur J Med Chem, 2024)
